How the values were obtained:
[1] = Determination of the protein affinity in the lysine model (HPTLC); conditions: 10 mg in 5 ml THF made up to 10 ml with lysine solution (200 mg/l water), 35° C., HPTLC detection at 254 nm and 366 nm; for reaction with lysine in a Maillard reaction / detectability of starting substance after 1 h: sample after 1 h
Procedure: In each case, 10 mg of the substances according to Example 1 and Example 2 are weighed out into a 10 ml volumetric flask and dissolved in 5 ml of tetrahydrofuran (THF). The volumetric flask is then made up to the mark with a lysine solution in distilled water. The concentration of the lysine solution is 200 mg/I of water. The solution is stirred in the volumetric flask at 35° C. for 24 h. Samples are taken after 1 h and after 24 h. 5 μl of each of these samples are pipetted onto the start zone of an HPTLC silica gel 60 […] plate (Merck Art. 1.05628) using a micropipette. For development of the HPTLC plate, the eluent consisting of THF/heptane in the ratio 75/25 containing 0.1 vol % of formic acid is used. After development, detection is carried out at 254 nm and 366 nm in a CAMAG ATS4, and the Rf values are determined.

[2] = Investigation in the Liquidskin model (L*-a*-b* values, UV/VIS spectrometer); conditions: RT, 3 hrs
Procedure: 1 mmol of the substance according to Example 1 (2-methyl-4-oxo-4H-pyran-3-yl 2-(4-dibutylamino-2-hydroxybenzoyl)benzoate) is dissolved in 94 ml of ethylene glycol and 6 ml of water (potassium hydrogenphthalate-buffered, pH=4) with 1 mmol of DL-lysine and stirred at RT for 3 hrs. (=Liquidskin model). The L*-a*-b* values of this solution are subsequently measured using a UV/VIS spectrometer (Varian Cary-100) and compared with the starting values.

[3] = 1 mmol substance + 1 mmol DL-lysine in 94 ml ethylene glycol and 6 ml water (pH=4), compared with starting values

Structure (SMILES) | reaction with lysine in a Maillard reaction / detectability of starting substance after 1 h [1] | delta L* [2, 3] | delta a* [2, 3] | delta b* [2, 3] | colour change of lysine ([2]; Liquidskin model) | reaction with lysine in a Maillard reaction / detectability of starting substance after 24 h ([1]; sample after 24 h)
CCCCN(CCCC)c1ccc(C(=O)c2ccccc2C(=O)Oc2c(C)occc2=O)c(O)c1 [Example 1, 2-methyl-4-oxo-4H-pyran-3-yl 2-(4-dibutylamino-2-hydroxybenzoyl)benzoate] | completely reacted with lysine | −4.07 | −2.75 | +7.83 | exhibits a colour change of lysine | –
COc1ccc(/C=C/C(=O)Oc2c(C)occc2=O)cc1 [Example 2, 2-methyl-4-oxo-4H-pyran-3-yl 2-(E)-3-(4-methoxyphenyl)acrylate] | can still be detected | – | – | – | – | reaction is complete
